Results as given in US7087623B2, “Thiazole and other heterocyclic ligands for mammalian dopamine, muscarinic and serotonin receptors and transporters, and methods of use thereof” (Sepracor Inc., priority 2001, dated 2006).
Where two headings read alike, the source gives them in different places.

How the values were obtained:
[1] = biological target: T1, human serotonin 5-HT2C receptor (Homo sapiens, UniProt P28335); assay: Radioligand binding assay, human 5-HT2C receptors ([3H]Mesulergine)
T1 construct: expressed in transfected cells; host or cells: CHO-K1
T1 sequence (P28335 33-458): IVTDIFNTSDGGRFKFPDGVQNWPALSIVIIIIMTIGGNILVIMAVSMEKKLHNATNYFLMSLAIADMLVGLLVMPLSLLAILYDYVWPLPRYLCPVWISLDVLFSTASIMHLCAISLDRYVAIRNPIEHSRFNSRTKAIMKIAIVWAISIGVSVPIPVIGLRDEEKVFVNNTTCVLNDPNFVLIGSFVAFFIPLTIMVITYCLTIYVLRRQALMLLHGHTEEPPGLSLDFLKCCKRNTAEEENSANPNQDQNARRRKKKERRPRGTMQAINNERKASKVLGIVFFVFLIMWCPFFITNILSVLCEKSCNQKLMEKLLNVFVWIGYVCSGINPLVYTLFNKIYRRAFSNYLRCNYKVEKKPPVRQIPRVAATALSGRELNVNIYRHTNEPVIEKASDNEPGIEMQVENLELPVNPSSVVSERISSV
Method: (§1) The human 5-HT2a and 5-HT2b screens were conducted according to Bonhaus, D. W. et al. Br. J. Pharmacol. 1995, 115, 622. The human 5-HT2c screen was conducted according to Wolf, W. A. et al. J. Neurochem. 1997, 69, 1449. The human 5-HT6 screen was conducted according to Monsma, F. J. et al. Mol. Pharmacol. 1993, 43, 320.
CHO-K1 cells stably transfected with a plasmid encoding the human serotonin 5-HT2C receptor were used to prepare membranes in modified Tris-HCl pH 7.7 buffer using standard techniques. […] Non-specific binding was estimated in the presence of 1 μM mianserin. […] See Wolf, W. A. and Schutz, J. S. “The serotonin 5-HT2C receptor is a prominent serotonin receptor in basal ganglia: evidence from functional studies on serotonin-mediated phosphoinositide hydrolysis” J. Neurochem. 69: 1449–1458, 1997.
(§2) The human 5-HT2a and 5-HT2b screens were conducted according to Bonhaus, D. W. et al. Br. J. Pharmacol. 1995, 115, 622. The human […], W. A. et al. J. Neurochem. 1997, 69, 1449. The human 5-HT6 screen was conducted according to Monsama, F. J. et al. Mol. Pharmacol. 1993, 43, 320. The assay to human D3 receptors was conducted according to Sokoloff, P. et al. Nature 1990, 347;146. The human dopamine transporter assay was conducted according to Gu, H. et. al. J. Biol. Chem. 1994, 269 (10);7124; and Giros, B. et al. Trends. Pharmacol. Sci. 1993, 14: 43. The human muscarinic M1–M4 screens were conducted according to Buckley N. J. et al. Mol. Pharmacol. 1989, 35:469.

[2] = biological target: T2, human serotonin 5-HT2A receptor (Homo sapiens, UniProt P28223); assay: Radioligand binding assay, human 5-HT2A receptors ([3H]Ketanserin)
T2 construct: expressed in transfected cells; host or cells: CHO-K1
Method: as §1
CHO-K1 cells stably transfected with a plasmid encoding the human serotonin 5-HT2A receptor were used to prepare membranes in modified Tris-HCl pH 7.7 buffer using standard techniques. […] Non-specific binding was estimated in the presence of 1 μM mianserin. […] See Bonhaus, D. W. et al. “The pharmacology and distribution of human 5-hydroxytryptamine2B (5-HT2B) receptor gene products: comparison with 5-HT2A and 5-HT2C receptors” Brit. J. Pharmacol. 115: 622–628, 1995; and Saucier, C and Albert, P. R. “Identification of an endogenous 5-hydroxytryptamine2A receptor in NIH-3T3 cells: agonist-induced down-regulation involves decreases in receptor RNA and number” J. Neurochem. 68: 1998–2011, 1997.
as §2

[3] = biological target: T3, human serotonin 5-HT2B receptor (Homo sapiens, UniProt P41595); assay: Radioligand binding assay, human 5-HT2B receptors ([3H]LSD)
T3 construct: expressed in transfected cells; host or cells: CHO-K1
Method: This assay measures binding of [^3H]LSD to human serotonin 5-HT2B receptors. CHO-K1 cells stably transfected with a plasmid encoding the human serotonin 5-HT2B receptor were used to prepare membranes in modified Tris-HCl pH 7.4 buffer using standard techniques. […] Non-specific binding was estimated in the presence of 10 μM serotonin. Membranes were filtered and washed 3 times and the filters were counted to determine [^3H]LSD specifically bound. See Bonhaus, D. W. et al. “The pharmacology and distribution of human 5-hydroxytryptamine2B (5-HT2B) receptor gene products: comparison with 5-HT2A and 5-HT2C receptors” Brit.
The human 5-HT2b screen was conducted according to Wolf, W. A. et al. J. Neurochem.

[4] = biological target: T4, human serotonin 5-HT6 receptor (Homo sapiens, UniProt P50406); assay: Radioligand binding assay, human 5-HT6 receptors ([3H]LSD)
T4 construct: expressed in transfected cells; host or cells: HeLa/E6-7
Method: as §1
This assay measures binding of [^3H]LSD (lysergic acid diethylamide) to human serotonin 5-HT6 receptors. HeLa/E6–7 cells stably transfected with a plasmid encoding the human serotonin 5-HT6 receptor were used to prepare membranes in modified Tris-HCl pH 7.4 buffer using standard techniques. A 30 μg aliquot of membrane was incubated with 1.5 nM [^3H]LSD for 120 minutes at 37° C. Non-specific binding was estimated in the presence of 5 μM 5-HT. Membranes were filtered and washed 3 times and the filters were counted to determine [^3H]LSD specifically bound. See Monsma, Jr., F. J. et al. “Cloning and expression of a novel serotonin receptor with high affinity for tricyclic psychotropic drugs” Mol. Pharmacol. 43: 320–327, 1993.
as §2

[5] = biological target: T5, human dopamine D3 receptor (Homo sapiens, UniProt P35462); assay: Radioligand binding assay, human dopamine D3 receptors ([3H]Spiperone)
T5 construct: expressed in transfected cells; host or cells: CHO
Method: The assay for binding to human D3 receptors was conducted according to Sokoloff, P. et al. Nature 1990, 347, 146.
CHO cells stably transfected with a plasmid encoding the human dopamine D3 receptor were used to prepare membranes in modified Tris-HCl pH 7.4 buffer using standard techniques. […] Non-specific binding was estimated in the presence of 25 μM S-(−)-sulpiride. […] See Sokoloff, P. et al. “Molecular cloning and characterization of a novel dopamine receptor (D3) as a target for neuroleptics” Nature 347: 146–151, 1990.
as §2

[6] = human 5-HT2c, Example 16 table, read-out: IC50 (nM) 5-HT2c
[7] = human 5-HT2a, Example 16 table, read-out: IC50 (nM) 5-HT2a
[8] = human 5-HT2b, Example 16 table, read-out: IC50 (nM) 5-HT2b
[9] = human 5-HT6, Example 16 table, read-out: IC50 (nM) 5-HT6
[10] = Example 20 table, read-out: IC50 (nM) Against Human D3 Receptors
[11] = human, Example 100 table, read-out: IC50 (nM) 5-HT2C
[12] = human, Example 100 table, read-out: IC50 (nM) 5-HT2A
[13] = human, Example 100 table, read-out: IC50 (nM) 5-HT2B
[14] = human, Example 100 table, read-out: IC50 (nM) 5-HT6
[15] = human, Example 100 table, read-out: IC50 (nM) D3

T5 sequence (P35462 whole entry): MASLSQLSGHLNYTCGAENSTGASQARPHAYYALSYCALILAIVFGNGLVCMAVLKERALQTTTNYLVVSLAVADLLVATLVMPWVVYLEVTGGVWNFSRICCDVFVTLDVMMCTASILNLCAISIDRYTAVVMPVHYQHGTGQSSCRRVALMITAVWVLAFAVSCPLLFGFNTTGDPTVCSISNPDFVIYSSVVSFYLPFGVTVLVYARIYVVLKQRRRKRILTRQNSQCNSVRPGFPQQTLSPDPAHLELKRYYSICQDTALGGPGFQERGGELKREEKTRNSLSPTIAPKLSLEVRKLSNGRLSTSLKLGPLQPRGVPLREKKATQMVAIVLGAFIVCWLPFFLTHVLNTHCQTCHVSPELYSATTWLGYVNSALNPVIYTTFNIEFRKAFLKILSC
T4 sequence (P50406 whole entry): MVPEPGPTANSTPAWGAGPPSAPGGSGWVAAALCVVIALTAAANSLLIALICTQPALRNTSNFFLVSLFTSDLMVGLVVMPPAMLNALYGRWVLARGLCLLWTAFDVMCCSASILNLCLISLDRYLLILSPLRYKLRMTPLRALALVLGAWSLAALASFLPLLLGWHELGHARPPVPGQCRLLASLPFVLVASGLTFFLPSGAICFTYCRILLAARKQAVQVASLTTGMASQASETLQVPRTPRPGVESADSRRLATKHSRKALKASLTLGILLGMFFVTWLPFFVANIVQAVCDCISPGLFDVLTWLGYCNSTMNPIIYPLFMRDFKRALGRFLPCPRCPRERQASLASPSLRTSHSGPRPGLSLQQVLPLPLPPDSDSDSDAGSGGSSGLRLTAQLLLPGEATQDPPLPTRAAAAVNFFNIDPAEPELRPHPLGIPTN
T2 sequence (P28223 whole entry): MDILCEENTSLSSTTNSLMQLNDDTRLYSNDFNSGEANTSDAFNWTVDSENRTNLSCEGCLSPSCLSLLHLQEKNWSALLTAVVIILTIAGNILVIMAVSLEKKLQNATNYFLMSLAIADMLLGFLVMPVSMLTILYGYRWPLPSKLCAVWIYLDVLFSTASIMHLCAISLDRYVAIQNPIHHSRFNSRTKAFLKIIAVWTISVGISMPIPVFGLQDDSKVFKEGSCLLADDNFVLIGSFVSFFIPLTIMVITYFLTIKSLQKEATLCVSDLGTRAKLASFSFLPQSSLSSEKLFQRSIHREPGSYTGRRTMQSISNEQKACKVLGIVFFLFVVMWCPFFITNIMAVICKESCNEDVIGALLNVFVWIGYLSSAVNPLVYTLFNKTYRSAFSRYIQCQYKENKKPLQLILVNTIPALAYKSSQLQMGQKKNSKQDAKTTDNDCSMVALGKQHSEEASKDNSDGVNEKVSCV
T3 sequence (P41595 whole entry): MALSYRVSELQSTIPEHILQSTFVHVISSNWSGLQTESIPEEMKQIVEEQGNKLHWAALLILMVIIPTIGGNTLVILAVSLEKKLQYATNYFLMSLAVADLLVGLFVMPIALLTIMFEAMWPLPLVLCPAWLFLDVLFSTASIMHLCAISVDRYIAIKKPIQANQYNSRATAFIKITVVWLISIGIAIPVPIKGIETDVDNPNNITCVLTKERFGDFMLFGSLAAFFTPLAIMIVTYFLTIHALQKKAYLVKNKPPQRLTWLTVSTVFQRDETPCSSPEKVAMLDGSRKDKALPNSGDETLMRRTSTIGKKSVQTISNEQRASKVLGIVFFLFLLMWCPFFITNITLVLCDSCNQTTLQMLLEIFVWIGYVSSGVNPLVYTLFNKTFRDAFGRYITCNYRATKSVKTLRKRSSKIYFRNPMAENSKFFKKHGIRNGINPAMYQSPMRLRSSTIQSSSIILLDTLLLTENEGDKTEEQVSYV

## Clc1ccc(C2(c3csc(NCCCN4CCOCC4)n3)CCC2)cc1 [Compound 21, {4-[1-(4-chlorophenyl)-cyclobutyl]thiazol-2-yl}-(3-morpholin-4-yl-propyl)amine]
[1]; [6]
  IC50: < 1000 nM
[2]; [7]
  IC50: > 1000 nM
[3]; [8]
  IC50: < 1000 nM
[4]; [9]
  IC50: > 1000 nM
[5]; [10]
  IC50: > 1000 nM

## Clc1ccc(C2(c3csc(C4CCNCC4)n3)CCC2)cc1 [Compound 30, 4-{4-[1-(4-chlorophenyl)cyclobutyl]thiazol-2-yl}-piperidine]
[1]; [6]
  IC50: < 1000 nM
[2]; [7]
  IC50: < 1000 nM
[3]; [8]
  IC50: < 1000 nM
[4]; [9]
  IC50: < 1000 nM
[5]; [10]
  IC50: > 1000 nM

## CN1CCC(c2nc(C3(c4ccc(Cl)cc4)CCC3)cs2)CC1 [Compound 31]
[1]; [6]
  IC50: < 1000 nM
[2]; [7]
  IC50: > 1000 nM
[3]; [8]
  IC50: < 1000 nM
[4]; [9]
  IC50: < 1000 nM
[5]; [10]
  IC50: < 1000 nM

## CN1CCN(c2nc(Cc3csc4ccc(Cl)cc34)cs2)CC1 [Compound 33]
[1]; [6]
  IC50: < 100 nM
[2]; [7]
  IC50: < 1000 nM
[3]; [8]
  IC50: < 10 nM
[4]; [9]
  IC50: < 1000 nM
[5]; [10]
  IC50: < 1000 nM

## CN1CCN(c2nc(C3(c4ccc(Cl)cc4)CCCCC3)cs2)CC1 [Compound 34]
[1]; [6]
  IC50: < 100 nM
[2]; [7]
  IC50: > 1000 nM
[3]; [8]
  IC50: < 100 nM
[4]; [9]
  IC50: < 1000 nM
[5]; [10]
  IC50: < 1000 nM

## Clc1cccc(C2(c3csc(C4CCCNC4)n3)CCOCC2)c1 (stereo not drawn) [Compound 38]
[1]; [6]
  IC50: > 1000 nM
[2]; [7]
  IC50: > 1000 nM
[3]; [8]
  IC50: > 1000 nM
[4]; [9]
  IC50: < 1000 nM
[5]; [10]
  IC50: > 1000 nM

## Clc1ccc(C2(c3nc(N4CCNCC4)sc3Cl)CCOCC2)cc1 [Compound 39]
[1]; [6]
  IC50: < 1000 nM
[2]; [7]
  IC50: < 1000 nM
[3]; [8]
  IC50: < 1000 nM
[4]; [9]
  IC50: < 1000 nM
[5]; [10]
  IC50: > 1000 nM

## CN1CCN(c2nc(C3(c4ccc(C(F)(F)F)cc4)CCOCC3)cs2)CC1 [Compound 43]
[1]; [6]
  IC50: > 1000 nM
[2]; [7]
  IC50: > 1000 nM
[3]; [8]
  IC50: > 1000 nM
[4]; [9]
  IC50: < 1000 nM
[5]; [10]
  IC50: < 1000 nM

## CN1CCN(c2nc(C3(c4ccc(F)cc4)CCOCC3)cs2)CC1 [Compound 47]
[1]; IC50 (nM) 5-HT2c, human 5-HT2c, Example 16 table
  IC50: > 1000 nM
[2]; IC50 (nM) 5-HT2a, human 5-HT2a, Example 16 table
  IC50: > 1000 nM
[3]
  IC50: > 1000 nM
[4]; IC50 (nM) 5-HT6, human 5-HT6, Example 16 table
  IC50: < 1000 nM
[5]; IC50 (nM) Against Human D3 Receptors, Example 20 table
  IC50: > 1000 nM

## COc1ccc(C2(c3csc(N4CCN(C)CC4)n3)CCOCC2)cc1 [Compound 51]
[1]; [6]
  IC50: > 1000 nM
[2]; [7]
  IC50: > 1000 nM
[3]; [8]
  IC50: > 1000 nM
[4]; [9]
  IC50: < 1000 nM
[5]; [10]
  IC50: > 1000 nM

## CN1CCN(c2nc(C3(c4ccc(OC(F)(F)F)cc4)CCOCC3)cs2)CC1 [Compound 55]
[1]; [6]
  IC50: < 1000 nM
[2]; [7]
  IC50: < 1000 nM
[3]; [8]
  IC50: > 1000 nM
[4]; [9]
  IC50: > 1000 nM
[5]; [10]
  IC50: < 1000 nM

## COc1cccc(C2(c3csc(N4CCN(C)CC4)n3)CCOCC2)c1 [Compound 67]
[1]; [11]
  IC50: > 1000 nM
[2]; [12]
  IC50: > 1000 nM
[3]; [13]
  IC50: > 1000 nM
[4]; [14]
  IC50: < 1000 nM
[5]; [15]
  IC50: > 1000 nM

## Clc1cccc(C2(c3csc(C4CCNCC4)n3)CCOCC2)c1 [Compound 68]
[1]; [6]
  IC50: > 1000 nM
[2]; [7]
  IC50: > 1000 nM
[3]; [8]
  IC50: > 1000 nM
[4]; [9]
  IC50: < 1000 nM
[5]; [10]
  IC50: > 1000 nM

## CN1CCC(c2nc(C3(c4cccc(Cl)c4)CCOCC3)cs2)CC1 [Compound 69]
[1]; [6]
  IC50: > 1000 nM
[2]; [7]
  IC50: > 1000 nM
[3]; [8]
  IC50: > 1000 nM
[4]; [9]
  IC50: < 1000 nM
[5]; [10]
  IC50: > 1000 nM

## CC(C)N1CCN(c2nc(C3(c4ccc(Cl)cc4)CCCCC3)cs2)CC1 [Compound 78]
[1]; [6]
  IC50: > 1000 nM
[2]; [7]
  IC50: > 1000 nM
[3]; [8]
  IC50: < 1000 nM
[4]; [9]
  IC50: > 1000 nM
[5]; [10]
  IC50: < 1000 nM

## CC(C)N1CCN(c2nc(C3(c4ccc(F)cc4)CCCCC3)cs2)CC1 [Compound 80]
[1]; [6]
  IC50: < 1000 nM
[2]; [7]
  IC50: > 1000 nM
[3]; [8]
  IC50: < 1000 nM
[4]; [9]
  IC50: > 1000 nM
[5]; [10]
  IC50: < 1000 nM

## CN1CCN(c2nc(C3(c4ccc(F)cc4)CCCCC3)cs2)CC1 [Compound 81]
[1]; [6]
  IC50: < 1000 nM
[2]; [7]
  IC50: > 1000 nM
[3]; [8]
  IC50: < 100 nM
[4]; [9]
  IC50: < 1000 nM
[5]; [10]
  IC50: < 1000 nM

## Cc1c(-c2csc(N3CCN(C)CC3)n2)sc2ccc(Cl)cc12 [Compound 113]
[1]; [11]
  IC50: < 1000 nM
[2]; [12]
  IC50: < 1000 nM
[3]; [13]
  IC50: > 1000 nM
[4]; [14]
  IC50: > 1000 nM
[5]; [15]
  IC50: > 1000 nM
